From patent US20110237541A1, “TRANSDERMALLY ADMINISTERED ALISKIREN” (priority 2008, published 2011)
Like-named read-outs stand apart in the source and are kept apart here.

What was measured:
[1] = test system: plasma renin activity (PRA); assay: Plasma renin activity (PRA) after TD delivery in double transgenic rats; format: in vivo; details: Rattus norvegicus, dTG rats, 4 h after delivery
Procedure: Pharmacokinetics and biomarkers—A blood sample (0.3 ml) was taken by tail bleed or jugular intravenous 4 h and 24 h after TD delivery to determine compound levels and plasma renin activity (PRA).

[2] = test system: female double transgenic (dtg) rats; assay: Mean arterial pressure by telemetry in double transgenic rats; format: in vivo, rat; details: for max MAP decrease: versus control group
Procedure: Female double transgenic (dtg) rats, which are transgenic for human renin and angiotensin (see, e.g., Bohlender et al., J AM SOC NEPHROL 11:2056 (2000)) were used. All animals were maintained under identical conditions and had free access to normal pelleted rat chow and water. Rats were initially treated with enalapril (1 mg/kg/day), starting 3 weeks after birth and continuing for 2 months. After approximately two weeks following cessation of enalapril treatment, the double transgenic rats are hypertensive, with mean arterial blood pressures in the range of 160-170 mmHg.
Transmitter implantation—The rats were anesthetized using isoflurane (via inhalation, 2-3%) The pressure transmitter was implanted under aseptic conditions into the peritoneal cavity with the sensing catheter placed in the descending aorta below the renal arteries pointing upstream. The transmitter was sutured to the abdominal musculature, the skin closed, and the rats were individually housed in a cage, placed on a telemetry receiver pad to enable collection of the blood pressure data during recovery from anesthesia and thereafter. The rats were singly caged for the duration of the recording of telemetry data.
Telemetry-System—Telemetry units were obtained from Data Sciences (St. Paul, Minn.). […] The tip of the catheter was filled with a viscous gel that prevents blood reflux and was coated with an antithrombogenic film. The implants (length=2.5 cm, diameter=1.2 cm) weighed 9 g and have a typical battery life of 6 months. A receiver platform (model RPC-1 from Data Sciences) connected the radio signal to digitized input that was sent to a dedicated personal computer. Arterial pressures were calibrated by using an input from an ambient-pressure reference (APR-1, Data Sciences). Systolic, mean, and diastolic blood pressures were expressed in millimeter of mercury (mmHg).
Drug administration—For oral dosing, aliskiren was dissolved in 0.5% methocel and administered via feeding tubes. The compound was dosed in a single bolus of 3 mg/5 ml/kg or 30 mg/5 ml/kg. After dosing, the rat was returned to the cage. Blood pressure data were collected up to 7 days after oral dosing.
For transdermal delivery, aliskiren was dissolved in 100% DMSO to be applied in a single application of 250 μl of solution. The rat was lightly sedated under 2.5% isoflurane anesthesia, and its back was shaved over a 4 cm^2 area. The animal was returned to the cage to recover from anesthesia. Twenty-four hours later, the rat was lightly sedated under 2.5% isoflurane anesthesia, and the shaved area disinfected with 3 passes of ethanol.
After evaporation of the ethanol, a volume of 250 μl of 100% DMSO only, or of the compound dissolved in a 100% DMSO solution was applied over the shaved area using a micropipette. After complete evaporation of the DMSO solution (within 5 min after application), an occlusive transparent, waterproof film (OpSite) was taped to the back of the animal over the shaved area, and a jacket was fitted on the animal. Isoflurane inhalation was stopped, and the animal individually caged. Blood pressure data was collected up to 5 days after application of the compound/DMSO solution.
Hemodynamic measurements—For oral delivery, double transgenic rats with implanted pressure transmitters were dosed by oral gavage with a single bolus of vehicle (5 ml/kg) or of the test substance (30 mg/5 ml/kg) (n=6 per group).
For transdermal delivery, double transgenic rats with implanted pressure transmitters were dosed with a single application of vehicle (250 μl of 100% DMSO; n=4) or of the test substance (10 mg in 250 μl of 100% DMSO, i.e. 36 mg/kg; n=5).
The mean arterial blood pressure was continuously monitored. The effect of the test substance is expressed as maximal decrease of mean arterial pressure (MAP) in the treated group versus the control group. […]

[3] = AUC of aliskiren after PO or TD delivery in telemetrized female dTG rats; format: in vivo, rat; details: for AUC(0-t): double transgenic (dTG, human renin and angiotensin), rat, read-out: AUC24 h
Procedure: The rat was lightly sedated under 2.5% isoflurane anesthesia, and its back was shaved over a 4 cm^2 area.
After complete evaporation of the DMSO solution (within 5 min after application), an occlusive transparent, waterproof film (OpSite) was taped to the back of the animal over the shaved area, and a jacket was fitted on the animal. Isoflurane inhalation was stopped, and the animal individually caged.

[4] = Bioavailability of aliskiren after oral and transdermal administration in Sprague-Dawley rats (plasma LC-MS/MS); format: in vivo, rat; details: male SD rats; for AUC: Sprague-Dawley, rat, plasma
Procedure: Male Sprague-Dawley rats (300-400 g body weight) were purchased from Charles River Canada Corporation (188 Rue LaSalle, St-Constant, QC, J5A 1Y2, Canada). […] For oral dosing, aliskiren was dissolved in 0.5% methocel and administered via feeding tubes. The compound was dosed in a single bolus of 3 mg/5 ml/kg or 25 mg/5 ml/kg. For intravenous (IV) […] dosing, aliskiren was dissolved in 60% PEG 200 and administered in a single bolus at 0.5 mg/1 ml/kg. For transdermal delivery, aliskiren was dissolved in 100% DMSO, and applied (single application of 250 μl of solution) onto the shaved skin of the rat. The rat was lightly sedated under 2.5% isoflurane anesthesia, and its back was shaved over a 4 cm^2 area. The animal was returned to its cage to recover from anesthesia. Twenty-four hours later, the rat was lightly sedated under 2.5% isoflurane anesthesia, and the shaved area was disinfected with three passes of ethanol. After evaporation of the ethanol, a volume of […] of 100% DMSO only, or of the compound dissolved in a 100% DMSO solution was applied over the shaved area using a micropipette. After complete evaporation of the DMSO solution (within 5 min after application), an occlusive transparent, waterproof film (OpSite) was taped to the back of the animal over the shaved area, and a jacket was fitted on the animal. Isoflurane inhalation was stopped, and the animal individually caged. The jacket was removed four hours after application of the compound solution.
A blood sample (0.4 ml) was taken by tail or jugular vein bleed for the determination of compound levels, 1 h, 2 h, 4 h, 6 h, 8 h, 10 h and 24 h after either oral gavage or application on the skin of the compound dissolved in 100% DMSO solution. The animal was euthanized after the 24 h time point. […] The plasma was separated by centrifugation and stored at −20° C. pending analysis. Plasma samples were analyzed for aliskiren concentrations using liquid chromatography coupled to mass spectrometry (LC-MS/MS).

[5] = TD, 36 mg/kg single application

COCCCOc1cc(C[C@@H](C[C@H](N)[C@@H](O)C[C@H](C(=O)NCC(C)(C)C(N)=O)C(C)C)C(C)C)ccc1OC [aliskiren, (2S,4S,5S,7S)-5-amino-N-(2-carbamoyl-2,2-dimethylethyl)-4-hydroxy-7-{[4-methoxy-3-(3-methoxypropoxy)phenyl]methyl}-8-methyl-2-(propan-2-yl)nonanamide]
inhibition at 36 mg/kg [1]: 97%
ABC36 h ([2]; PO, 30 mg/kg single bolus): 630 mmHg * hr
duration (of MAP reduction) ([2]; PO, 30 mg/kg single bolus): 1.5 days
max MAP decrease ([2]; PO, 30 mg/kg single bolus): 40 mmHg
ABC36 h [2, 5]: 1213 mmHg * hr
duration (of MAP reduction) ([2]; TD, 36 mg/kg single application, 36 mg/kg): >3 days
max MAP decrease [2, 5]: 40 mmHg
increase of AUC, transdermal versus oral delivery ([3]; at the dose used (TD 36 mg/kg vs PO 30 mg/kg)): 70 fold
AUC(0-t) ([3]; blood, topical, TD, 36 mg/kg): 1.5 µM·h
AUC(0-t) ([3]; in vivo, PO, 30 mg/kg): < 0.021 µM·h
AUC ([4]; topical, TD, 2.9 mg/kg): 0.084 µM·h
AUC ([4]; topical, TD, 29 mg/kg): 0.25 µM·h
AUC ([4]; PO, 3 mg/kg): 0.0021 µM·h
AUC ([4]; PO, 25 mg/kg): 0.058 µM·h
F ([4]; PO, 3 mg/kg): 0.1%
F ([4]; PO, 25 mg/kg): 0.43%
F ([4]; TD, 2.9 mg/kg): 5.4%
F ([4]; TD, 29 mg/kg): 1.6%
